Results as given in patent US7807721B2, “Compositions for inhibiting the scent tracking ability of mosquitoes in environmentally defined three dimensional spaces” (Biosensory Inc., priority 1999, dated 2010).

Experiments:
Format in all cases: in vivo
[1] = tested on: adult female Aedes aegypti mosquitoes; assay: Dual-port olfactometer tests of Example 2: test compound + CS vs CS, and Deet vs inhibitor
Text: (§1) A triple cage, dual-port olfactometer, illustrated and described in detail by Posey et al. J. Med. Entomol. 35(3), 330-334 (1998), was used to study the responses of 6 to 8 day old, laboratory-reared adult female Aedes aegypti mosquitoes. This system allows mosquitoes to choose between two different stimuli. The olfactometer is constructed of clear acrylic, comprises three test chambers in a tiered configuration, has paired removable sleeves, and mosquito traps on each chamber, and is equipped with a filtered external air supply system that allows precise temperature (+/−0.5° C.) and relative humidity (+/−2%) control. Only one chamber at a time was used for the tests. Outside air was conditioned prior to entry through the choice ports, the mosquito trap, and the olfactometer by passing through a series of charcoal filters and then heated and humidified, if necessary. One hour before initiation of tests, about 75 female Ae. aegypti mosquitoes were aspirated into the olfactometer chamber and allowed to acclimatize for that one hour before testing. Test compounds were placed into test ports upwind of the traps and olfactometer chamber. A completely randomized design was used for cage position. Competitive tests were conducted. In these competitive tests, the inhibiting compound was placed into one of the ports (treatment port); the second port (check port) had the same apparatus but no chemical inhibiting compound. In these tests, inhibiting compounds were presented in glass Pyrex petri dishes (60×15 mm) that had been cleaned and sterilized in a vacuum oven and then handled only with gloves to minimize any chance of contamination and placed into one port (Treatment Port) along with another petri dish containing 500 μL of Clara Sludge (CS), a synthetic human attractant. The other port (Check Port) contained an untreated petri with no inhibiting compound and a second petri dish containing 500 μL CS. Various concentrations (25, 100, 250, 500 and 1000 μL) of the compounds were used in these tests. Each test was conducted for a period of 3 minutes; the number of mosquitoes trapped in the baited ports, and those remaining in the cage, were counted. The data are then presented as a percentage of total mosquitoes in the cage that were attracted to each port and the percentage of mosquitoes remaining in the cage (i.e., not attracted to either port). Tests identical to that described in Example 1 were conducted with test compounds when employed together with the synthetic human attractant (CS) in a port. The test combinations were: • (1) CS vs. CS (comparison) • (2) dehydrolinalool+CS vs. CS • (3) linalool+CS vs. CS Also for comparison purposes, a known topical mosquito repellent, Deet, namely N,N-diethyl-3-methylbenzamide, was employed to compare to linalool and to dehydrolinalool. Each test compound was tested at 100, 250 and 500 μL. The results are again presented as percent mosquitoes attracted to Ports 1 or 2 or not attracted to either port.

[2] = tested on: adult female Aedes aegypti mosquitoes; assay: Competitive tests in triple cage, dual-port olfactometer: inhibitor + Clara Sludge (CS) human attractant port vs CS-only port; conditions: for % Mosquitoes Entering Treatment Port (Inhibitor Port): 3 min test; for % Mosquitoes Entering Control Port (Human Scent Port): control port 500 μL CS only; for % Mosquitoes Entering Control Port (Human Scent Port) / % Mosquitoes Remaining in Cage: 3 min; for inhibition of the ability of mosquitoes to locate the human scent (CS): all tested concentration levels (25-1000 μL)
Text: as §1, with “port).” for “port). Tests identical to that described in Example 1 were conducted with test compounds when employed together with the synthetic human attractant (CS) in a port. The test combinations were: • (1) CS vs. CS (comparison) • (2) dehydrolinalool+CS vs. CS • (3) linalool+CS vs. CS Also for comparison purposes, a known topical mosquito repellent, Deet, namely N,N-diethyl-3-methylbenzamide, was employed to compare to linalool and to dehydrolinalool. Each test compound was tested at 100, 250 and 500 μL. The results are again presented as percent mosquitoes attracted to Ports 1 or 2 or not attracted to either port.”

Culex nigripalpus = assay: Field test, mosquito landing counts on human subject in open area surrounded by linalool dispensers
Experimental: In a further test of the inhibiting ability of the compounds of this invention, the following field test was conducted using linalool as the inhibiting compound. The study was conducted on a site adjacent to a wooded wetland breeding area in Sarasota, Fla. A trap baited with 200 ml/min CO2, equivalent to the respiration of a 91 kg (200 lb) man, ran continuously each night as an experimental control. The trap collections were first used to count the mosquito population and were then examine to identify the species present. The mosquito population was about 91% Culex nigripalpus, the St. Louis encephalitis vector in Florida.
The experimental design was a 2×2 Latin Square. Tests were conducted in two open areas 24 meters (80 feet) apart labeled Locations 1 and 2. Each area was 2.4 meters×2.4 meters (8 ft×8 ft), i.e., 5.76 m^2 (64 ft^2). Wooden poles 1.38 meters (4.5 feet) high and having inhibiting compound dispensers thereon were driven into the ground at the corners of the square area. On alternate nights, one area was unprotected by inhibiting compound while the other area had inhibiting compound dispensed from the dispenser. In operation, the dispenser emitted linalool inhibitor having 95% active ingredient at a rate of 20 mg/hr to 40 mg/hr.
Landing counts were taken from the arms, legs and torso of a test subject known to be moderately attractive to mosquitoes who was seated in the center of the square area. At 15-minute intervals over a period of 2 to 3 hours during peak mosquito activity, the subject changed position, alternating between Locations 1 and 2. […] Mosquitoes were killed to prevent double counting.
On some cue, they emerge en masse from the wooded wetland and fan out in a radial direction foraging for blood hosts. The period of peak activity is evidenced by a sharp increase in landing counts followed by a sharp decrease as the wave of outbound mosquitoes passes the test location. This behavior introduces two variables that must be taken into account. The first affects the experimental design and the second affects the interpretation of the results. […]

[3] = 100 micro liter, Port 1 Deet vs Port 2 dehydrolinalool
[4] = 100 micro liter, Port 1 Deet vs Port 2 linalool
[5] = 250 micro liter, Port 1 Deet vs Port 2 dehydrolinalool
[6] = 250 micro liter, Port 1 Deet vs Port 2 linalool
[7] = 500 micro liter, Port 1 Deet vs Port 2 dehydrolinalool
[8] = 500 micro liter, Port 1 Deet vs Port 2 linalool
[9] = 100 micro liter, Port 1 test compound vs Port 2 human scent
[10] = 250 micro liter, Port 1 test compound vs Port 2 human scent
[11] = 500 micro liter, Port 1 test compound vs Port 2 human scent
[12] = 25 micro liter test compound + 500 μL CS in treatment port
[13] = 25 micro liter test compound in treatment port
[14] = 100 micro liter test compound + 500 μL CS in treatment port
[15] = 100 micro liter test compound in treatment port
[16] = 250 micro liter test compound + 500 μL CS in treatment port
[17] = 250 micro liter test compound in treatment port
[18] = 500 micro liter test compound + 500 μL CS in treatment port
[19] = 500 micro liter test compound in treatment port
[20] = 1000 micro liter test compound + 500 μL CS in treatment port
[21] = 1000 micro liter test compound in treatment port

| Structure (SMILES) | % Mosquitoes Remaining in Cage [1, 3] [%] | % Mosquitoes Remaining in Cage [1, 4] [%] | % Mosquitoes Remaining in Cage [1, 5] [%] | % Mosquitoes Remaining in Cage [1, 6] [%] | % Mosquitoes Remaining in Cage [1, 7] [%] | % Mosquitoes Remaining in Cage [1, 8] [%] | % Mosquitoes Entering Port 1 (test compound + CS) [1, 9] [%] | % Mosquitoes Entering Port 2 (human scent) [1, 9] [%] | % Mosquitoes Remaining in Cage [1, 9] [%] | % Mosquitoes Entering Port 1 (test compound + CS) [1, 10] [%] | % Mosquitoes Entering Port 2 (human scent) [1, 10] [%] | % Mosquitoes Remaining in Cage [1, 10] [%] | % Mosquitoes Entering Port 1 (test compound + CS) [1, 11] [%] | % Mosquitoes Entering Port 2 (human scent) [1, 11] [%] | % Mosquitoes Remaining in Cage [1, 11] [%] | % Mosquitoes Entering Treatment Port (Inhibitor Port) [2, 12] [%] | % Mosquitoes Entering Control Port (Human Scent Port) [2, 13] [%] | % Mosquitoes Remaining in Cage ([2]; 25 micro liter test compound) [%] | % Mosquitoes Entering Treatment Port (Inhibitor Port) [2, 14] [%] | % Mosquitoes Entering Control Port (Human Scent Port) [2, 15] [%] | further results |
| --- | --- | --- | --- | --- | --- | --- | --- | --- | --- | --- | --- | --- | --- | --- | --- | --- | --- | --- | --- | --- | --- |
| CCN(CC)C(=O)c1cccc(C)c1 [Deet, N,N-diethyl-3-methylbenzamide, reference compound] | 19.8 | 26.2 | 29.2 | 26.2 | 27.6 | 27.3 |  |  |  |  |  |  |  |  |  |  |  |  |  |  | % Mosquitoes Entering Port 1 (Deet) [1, 3]: 60.1%; % Mosquitoes Entering Port 1 (Deet) [1, 4]: 56.3%; % Mosquitoes Entering Port 1 (Deet) [1, 5]: 48.8%; % Mosquitoes Entering Port 1 (Deet) [1, 6]: 48.1%; % Mosquitoes Entering Port 1 (Deet) [1, 7]: 42.1%; % Mosquitoes Entering Port 1 (Deet) [1, 8]: 49.5% |
| C#CC(C)(O)CCC=C(C)C (centres unmarked) [Dehydrolinalool, dehydrolinalool] | 19.8 |  | 29.2 |  | 27.6 |  | 18.1 | 63 | 18.9 | 20.1 | 59.2 | 20.6 | 20.6 | 55.5 | 23.9 | 30.23 | 50.77 | 19 | 31.13 | 53.87 | % Mosquitoes Entering Port 2 (dehydrolinalool) [1, 3]: 20.1%; % Mosquitoes Entering Port 2 (dehydrolinalool) [1, 5]: 22.5%; % Mosquitoes Entering Port 2 (dehydrolinalool) [1, 7]: 30.3%; % Mosquitoes Remaining in Cage ([2]; 100 micro liter test compound): 15%; % Mosquitoes Entering Treatment Port (Inhibitor Port) [2, 16]: 22.6%; % Mosquitoes Entering Control Port (Human Scent Port) [2, 17]: 44.6%; % Mosquitoes Remaining in Cage ([2]; 250 micro liter test compound): 32.8%; % Mosquitoes Entering Treatment Port (Inhibitor Port) [2, 18]: 24.8%; % Mosquitoes Entering Control Port (Human Scent Port) [2, 19]: 56.47%; % Mosquitoes Remaining in Cage ([2]; 500 micro liter test compound): 24.18%; % Mosquitoes Entering Treatment Port (Inhibitor Port) [2, 20]: 26.11%; % Mosquitoes Entering Control Port (Human Scent Port) [2, 21]: 42.76%; % Mosquitoes Remaining in Cage ([2]; 1000 micro liter test compound): 27.12%; inhibition of the ability of mosquitoes to locate the human scent (CS) [2]: greatly inhibit |
| C=CC(C)(O)CCC=C(C)C (centres unmarked) [Linalool, linalool] |  | 26.2 |  | 26.2 |  | 27.3 | 22.5 | 50.7 | 26.8 | 14.9 | 56.8 | 28.4 | 25.7 | 55.6 | 18.7 | 21.98 | 56.89 | 21.14 | 31.3 | 45.61 | % Mosquitoes Entering Port 2 (linalool) [1, 4]: 17.5%; % Mosquitoes Entering Port 2 (linalool) [1, 6]: 25.7%; % Mosquitoes Entering Port 2 (linalool) [1, 8]: 23.1%; % Mosquitoes Remaining in Cage ([2]; 100 micro liter test compound): 23.08%; % Mosquitoes Entering Treatment Port (Inhibitor Port) [2, 16]: 16.57%; % Mosquitoes Entering Control Port (Human Scent Port) [2, 17]: 47.3%; % Mosquitoes Remaining in Cage ([2]; 250 micro liter test compound): 36.13%; % Mosquitoes Entering Treatment Port (Inhibitor Port) [2, 18]: 16.13%; % Mosquitoes Entering Control Port (Human Scent Port) [2, 19]: 44.56%; % Mosquitoes Remaining in Cage ([2]; 500 micro liter test compound): 39.31%; % Mosquitoes Entering Treatment Port (Inhibitor Port) [2, 20]: 27.24%; % Mosquitoes Entering Control Port (Human Scent Port) [2, 21]: 44.14%; % Mosquitoes Remaining in Cage ([2]; 1000 micro liter test compound): 31.3%; inhibition of the ability of mosquitoes to locate the human scent (CS) [2]: greatly inhibit; reduction of mosquito landing counts, average (Culex nigripalpus; average over the three trials, linalool dispensed at 20 mg/hr to 40 mg/hr, human subject, 64 ft^2 area): 53%; reduction of landings (Culex nigripalpus; morning trial (7:00 AM to 9:00 AM) when mosquito activity was light): 73%; landings on human subject (Culex nigripalpus; subject surrounded by linalool dispensed from the dispensers (unprotected: 286 landings)): 135 landings |
